Laboratory results: ChEMBL document CHEMBL5550090, “Synthesis and biological evaluation of 1H-pyrrolo[3,2-g]isoquinolines” (Bioorg Med Chem, 2024)

Columns and labels:
[1] = biological target: Casein kinase I isoform epsilon (Homo sapiens) (UniProt P49674); experiment: Inhibition of human recombinant CK1 epsilon expressed in baculovirus-infected Sf9 cells assessed as enzyme residual activity using RRKHAAIGSpAYSITA as substrate at 1 uM incubated for 30 mins in presence of ATP by ADP-Glo kinase assay
[2] = biological target: Dual specificity tyrosine-phosphorylation-regulated kinase 1A (Rattus norvegicus) (UniProt Q63470); experiment: Inhibition of recombinant rat DYRK1A kinase domain (1 to 499 residues) expressed in bacteria assessed as enzyme residual activity using KKISGRLSPIMTEQ as substrate at 10 uM incubated for 30 mins in presence of ATP by ADP-Glo kinase assay
[3] = test system: U2OS; experiment: Induction of cell cycle arrest in human U2OS cells assessed as proportion of cells at G2/M phase at 2.5 uM incubated for 24 hrs by flow cytometry (reference value: 16%); format: functional
[4] = test system: HBL-100; experiment: cells; conditions: Homo sapiens, HBL-100, 48 h
Description: Antiproliferative activity against human HBL-100 cells assessed as reduction in cell viability incubated for 48 hrs by MTS assay

[5] = test system: U2OS; experiment: Induction of cell cycle arrest in human U2OS cells assessed as proportion of cells at S phase at 2.5 uM incubated for 24 hrs by flow cytometry (reference value: 39%); format: functional
[6] = biological target: T1, Cyclin-dependent kinase 5/CDK5 activator 1 (Homo sapiens) (UniProt Q00535+Q15078); experiment: Inhibition of human recombinant CDK5/p25 expressed in bacteria assessed as enzyme residual activity using histone H1 as substrate at 1 uM incubated for 30 mins in presence of ATP by ADP-Glo kinase assay
[7] = biological target: Dual specificity protein kinase CLK1 (Mus musculus) (UniProt P22518); experiment: Inhibition of recombinant mouse CLK1 expressed in bacteria assessed as enzyme residual activity using GRSRSRSRSRSR as substrate at 1 uM incubated for 30 mins in presence of ATP by ADP-Glo kinase assay
[8] = biological target: T1, Cyclin-dependent kinase 5/CDK5 activator 1 (Homo sapiens); experiment: Inhibition of human recombinant CDK5/p25 expressed in bacteria assessed as enzyme residual activity using histone H1 as substrate at 10 uM incubated for 30 mins in presence of ATP by ADP-Glo kinase assay
[9] = biological target: Glycogen synthase kinase-3 beta (Homo sapiens) (UniProt P49841); experiment: Inhibition of human recombinant GSK-3 beta expressed in baculovirus-infected Sf9 cells assessed as enzyme residual activity using YRRAAVPPSPSLSRHSSPHQSpEDEEE as substrate at 10 uM incubated for 30 mins in presence of ATP by ADP-Glo kinase assay
[10] = test system: U2OS; experiment: Induction of cell cycle arrest in human U2OS cells assessed as proportion of cells at G2/M phase at 5 uM incubated for 24 hrs by flow cytometry (reference value: 16%); format: functional
[11] = biological target: Dual specificity tyrosine-phosphorylation-regulated kinase 1A (Rattus norvegicus, UniProt Q63470); experiment: Inhibition of recombinant rat DYRK1A kinase domain (1 to 499 residues) expressed in bacteria using KKISGRLSPIMTEQ as substrate incubated for 30 mins in presence of ATP by ADP-Glo kinase assay
[12] = biological target: Glycogen synthase kinase-3 beta (Homo sapiens) (UniProt P49841); experiment: Inhibition of human recombinant GSK-3 beta expressed in baculovirus-infected Sf9 cells assessed as enzyme residual activity using YRRAAVPPSPSLSRHSSPHQSpEDEEE as substrate at 1 uM incubated for 30 mins in presence of ATP by ADP-Glo kinase assay
[13] = test system: U2OS; experiment: Induction of cell cycle arrest in human U2OS cells assessed as proportion of cells at S phase at 5 uM incubated for 24 hrs by flow cytometry (reference value: 39%); format: functional
[14] = biological target: T2, Serine/threonine-protein kinase pim-1 (Homo sapiens, UniProt P11309); experiment: Inhibition of human recombinant PIM-1 expressed in bacteria using histone H1 as substrate incubated for 30 mins in presence of ATP by ADP-Glo kinase assay
Target sequence in this assay (P11309 whole entry): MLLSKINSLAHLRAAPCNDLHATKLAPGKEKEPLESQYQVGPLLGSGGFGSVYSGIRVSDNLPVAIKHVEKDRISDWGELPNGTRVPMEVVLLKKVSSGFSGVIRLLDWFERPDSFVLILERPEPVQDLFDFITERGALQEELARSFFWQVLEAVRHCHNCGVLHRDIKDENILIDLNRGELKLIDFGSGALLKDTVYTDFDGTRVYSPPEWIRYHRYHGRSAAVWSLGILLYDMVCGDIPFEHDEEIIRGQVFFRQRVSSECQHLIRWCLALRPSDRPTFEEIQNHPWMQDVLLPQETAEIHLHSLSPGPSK

[15] = test system: U2OS; experiment: Induction of cell cycle arrest in human U2OS cells assessed as proportion of cells at G1 phase at 2.5 uM incubated for 24 hrs by flow cytometry (reference value: 45%); format: functional
[16] = biological target: Dual specificity tyrosine-phosphorylation-regulated kinase 1A (Rattus norvegicus) (UniProt Q63470); experiment: Inhibition of recombinant rat DYRK1A kinase domain (1 to 499 residues) expressed in bacteria assessed as enzyme residual activity using KKISGRLSPIMTEQ as substrate at 1 uM incubated for 30 mins in presence of ATP by ADP-Glo kinase assay
[17] = test system: SH-SY5Y; experiment: cells; conditions: Homo sapiens, 48 h
Description: Antiproliferative activity against human SH-SY5Y cells assessed as reduction in cell viability incubated for 48 hrs by MTS assay

[18] = biological target: T2, Serine/threonine-protein kinase pim-1; experiment: Inhibition of human recombinant PIM-1 expressed in bacteria assessed as enzyme residual activity using histone H1 as substrate at 1 uM incubated for 30 mins in presence of ATP by ADP-Glo kinase assay
Target sequence in this assay (P11309 whole entry, looked up): as the sequence (P11309 whole entry) above

[19] = biological target: T3, Serine/threonine-protein kinase haspin (Homo sapiens, UniProt Q8TF76); experiment: Inhibition of recombinant human Haspin kinase domain (470 to 798 residues) expressed in bacteria using histone H3 (1 to 21) peptide as substrate incubated for 30 mins in presence of ATP by ADP-Glo kinase assay
T3 sequence (Q8TF76 whole entry): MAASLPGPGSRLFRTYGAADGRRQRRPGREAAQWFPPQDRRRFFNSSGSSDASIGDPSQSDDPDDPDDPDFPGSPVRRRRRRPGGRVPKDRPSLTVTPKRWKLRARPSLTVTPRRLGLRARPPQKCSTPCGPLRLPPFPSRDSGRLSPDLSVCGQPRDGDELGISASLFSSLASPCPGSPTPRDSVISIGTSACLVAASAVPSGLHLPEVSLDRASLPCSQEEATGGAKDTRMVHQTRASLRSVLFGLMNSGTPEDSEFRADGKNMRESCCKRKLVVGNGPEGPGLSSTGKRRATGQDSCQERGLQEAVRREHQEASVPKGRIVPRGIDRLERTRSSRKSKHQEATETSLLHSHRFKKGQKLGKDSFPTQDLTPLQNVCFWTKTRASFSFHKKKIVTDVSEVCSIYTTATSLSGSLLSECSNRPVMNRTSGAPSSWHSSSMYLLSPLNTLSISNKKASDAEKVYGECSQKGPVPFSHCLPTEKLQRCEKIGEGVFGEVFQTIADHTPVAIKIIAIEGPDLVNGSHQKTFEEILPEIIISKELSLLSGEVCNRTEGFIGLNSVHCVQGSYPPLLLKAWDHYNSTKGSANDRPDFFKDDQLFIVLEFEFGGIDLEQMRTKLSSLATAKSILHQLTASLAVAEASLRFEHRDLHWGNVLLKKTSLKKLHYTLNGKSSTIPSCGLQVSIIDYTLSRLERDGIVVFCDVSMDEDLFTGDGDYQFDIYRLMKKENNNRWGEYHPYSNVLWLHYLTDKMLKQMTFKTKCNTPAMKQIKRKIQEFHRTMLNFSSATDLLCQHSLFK

[20] = test system: U2OS; experiment: cells; conditions: Homo sapiens, 48 h
Description: Antiproliferative activity against human U2OS cells assessed as reduction in cell viability incubated for 48 hrs by MTS assay

[21] = biological target: T4, CDK9/cyclin T1 (Homo sapiens) (UniProt O60563+P50750); experiment: Inhibition of human recombinant CDK9/cyclin T expressed in baculovirus-infected Sf9 cells assessed as enzyme residual activity using YSPTSPSYSPTSPSYSPTSPSKKKK as substrate at 1 uM incubated for 30 mins in presence of ATP by ADP-Glo kinase assay
[22] = biological target: T2, Serine/threonine-protein kinase pim-1; experiment: Inhibition of human recombinant PIM-1 expressed in bacteria assessed as enzyme residual activity using histone H1 as substrate at 10 uM incubated for 30 mins in presence of ATP by ADP-Glo kinase assay
Target sequence in this assay (P11309 whole entry, looked up): as the sequence (P11309 whole entry) above

[23] = biological target: Dual specificity protein kinase CLK1 (Mus musculus) (UniProt P22518); experiment: Inhibition of recombinant mouse CLK1 expressed in bacteria assessed as enzyme residual activity using GRSRSRSRSRSR as substrate at 10 uM incubated for 30 mins in presence of ATP by ADP-Glo kinase assay
[24] = biological target: Dual specificity protein kinase CLK1 (Mus musculus, UniProt P22518); experiment: Inhibition of recombinant mouse CLK1 expressed in bacteria using GRSRSRSRSRSR as substrate incubated for 30 mins in presence of ATP by ADP-Glo kinase assay
[25] = test system: HCT-116; experiment: cells; conditions: Homo sapiens, HCT-116, 48 h
Description: Antiproliferative activity against human HCT-116 cells assessed as reduction in cell viability incubated for 48 hrs by MTS assay

[26] = test system: U2OS; experiment: Induction of cell cycle arrest in human U2OS cells assessed as proportion of cells at G1 phase at 5 uM incubated for 24 hrs by flow cytometry (reference value: 45%); format: functional
[27] = biological target: T4, CDK9/cyclin T1 (Homo sapiens); experiment: Inhibition of human recombinant CDK9/cyclin T expressed in baculovirus-infected Sf9 cells assessed as enzyme residual activity using YSPTSPSYSPTSPSYSPTSPSKKKK as substrate at 10 uM incubated for 30 mins in presence of ATP by ADP-Glo kinase assay
[28] = biological target: Casein kinase I isoform epsilon (Homo sapiens) (UniProt P49674); experiment: Inhibition of human recombinant CK1 epsilon expressed in baculovirus-infected Sf9 cells assessed as enzyme residual activity using RRKHAAIGSpAYSITA as substrate at 10 uM incubated for 30 mins in presence of ATP by ADP-Glo kinase assay
[29] = test system: TERT-RPE1; experiment: cells; conditions: Homo sapiens, RPE-1, 48 h
Description: Cytotoxicity against human TERT-RPE1 cells assessed as reduction in cell viability incubated for 48 hrs by MTS assay

[30] = test system: U2OS; experiment: Induction of cell cycle arrest in human U2OS cells assessed as proportion of cells at S phase at 0.5 uM incubated for 24 hrs by flow cytometry (reference value: 39%); format: functional
[31] = test system: U2OS; experiment: Induction of cell cycle arrest in human U2OS cells assessed as proportion of cells at G2/M phase at 0.5 uM incubated for 24 hrs by flow cytometry (reference value: 16%); format: functional
[32] = test system: U2OS; experiment: Induction of cell cycle arrest in human U2OS cells assessed as proportion of cells at G1 phase at 0.5 uM incubated for 24 hrs by flow cytometry (reference value: 45%); format: functional

Glycogen synthase kinase-3 beta (Homo sapiens), sequence (P49841 whole entry, looked up): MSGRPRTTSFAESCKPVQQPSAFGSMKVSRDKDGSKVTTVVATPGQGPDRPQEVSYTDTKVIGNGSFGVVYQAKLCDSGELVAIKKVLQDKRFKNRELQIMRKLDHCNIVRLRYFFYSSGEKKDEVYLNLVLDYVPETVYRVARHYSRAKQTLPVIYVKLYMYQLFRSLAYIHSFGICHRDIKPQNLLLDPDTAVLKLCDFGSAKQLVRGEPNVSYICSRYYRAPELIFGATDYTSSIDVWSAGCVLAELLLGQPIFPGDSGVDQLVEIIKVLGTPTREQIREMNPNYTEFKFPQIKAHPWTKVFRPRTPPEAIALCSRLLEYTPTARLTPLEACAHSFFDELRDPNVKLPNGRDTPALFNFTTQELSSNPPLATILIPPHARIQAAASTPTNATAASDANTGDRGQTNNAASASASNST
T1 sequence (Q00535 whole entry): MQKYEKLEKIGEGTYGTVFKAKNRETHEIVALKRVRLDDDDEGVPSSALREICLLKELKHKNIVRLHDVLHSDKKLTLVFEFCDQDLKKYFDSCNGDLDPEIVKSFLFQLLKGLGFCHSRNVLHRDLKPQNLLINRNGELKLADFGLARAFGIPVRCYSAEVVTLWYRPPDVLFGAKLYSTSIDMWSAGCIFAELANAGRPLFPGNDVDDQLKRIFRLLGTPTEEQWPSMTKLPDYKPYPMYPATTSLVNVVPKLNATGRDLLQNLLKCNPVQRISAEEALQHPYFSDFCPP
T1 sequence (Q15078 99-307 partner limits assumed): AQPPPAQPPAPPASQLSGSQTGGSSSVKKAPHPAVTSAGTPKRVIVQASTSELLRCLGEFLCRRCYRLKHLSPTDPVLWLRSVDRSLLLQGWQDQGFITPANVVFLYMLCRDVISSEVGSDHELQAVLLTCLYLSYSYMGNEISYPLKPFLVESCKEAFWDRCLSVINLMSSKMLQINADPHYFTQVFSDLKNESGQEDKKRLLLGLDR
Dual specificity protein kinase CLK1 (Mus musculus), sequence (P22518 whole entry, looked up): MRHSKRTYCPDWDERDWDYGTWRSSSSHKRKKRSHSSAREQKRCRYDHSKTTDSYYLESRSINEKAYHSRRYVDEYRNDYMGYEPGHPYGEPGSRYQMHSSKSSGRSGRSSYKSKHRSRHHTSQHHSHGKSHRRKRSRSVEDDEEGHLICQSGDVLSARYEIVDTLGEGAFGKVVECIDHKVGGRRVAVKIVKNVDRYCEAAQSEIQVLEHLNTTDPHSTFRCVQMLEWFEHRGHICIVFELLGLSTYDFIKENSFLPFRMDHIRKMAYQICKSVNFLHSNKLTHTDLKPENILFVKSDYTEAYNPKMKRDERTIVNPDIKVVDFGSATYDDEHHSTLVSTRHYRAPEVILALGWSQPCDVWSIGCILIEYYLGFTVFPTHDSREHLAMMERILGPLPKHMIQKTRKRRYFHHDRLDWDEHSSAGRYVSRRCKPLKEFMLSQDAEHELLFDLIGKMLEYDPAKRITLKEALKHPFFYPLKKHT
Casein kinase I isoform epsilon (Homo sapiens), sequence (P49674 whole entry, looked up, the tested form may be a part, canonical isoform): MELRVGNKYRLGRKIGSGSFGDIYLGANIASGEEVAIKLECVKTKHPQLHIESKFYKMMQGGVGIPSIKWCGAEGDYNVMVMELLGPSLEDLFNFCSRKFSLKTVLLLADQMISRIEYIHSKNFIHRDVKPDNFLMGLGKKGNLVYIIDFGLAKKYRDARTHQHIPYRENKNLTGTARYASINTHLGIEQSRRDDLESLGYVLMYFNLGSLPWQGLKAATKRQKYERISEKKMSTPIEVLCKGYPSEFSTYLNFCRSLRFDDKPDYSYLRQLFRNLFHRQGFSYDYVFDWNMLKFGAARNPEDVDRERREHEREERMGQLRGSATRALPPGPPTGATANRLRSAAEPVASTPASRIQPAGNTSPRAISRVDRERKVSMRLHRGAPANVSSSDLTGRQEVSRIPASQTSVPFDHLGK
Dual specificity protein kinase CLK1, sequence (P22518 whole entry): as the sequence (P22518 whole entry, looked up) above

c1cc(-c2c[nH]c3cc4cnccc4cc23)ccn1
Activity [1]: 61% | Activity [2]: 11% | Activity [3]: 13% | EC50 [4]: 24100 nM | Activity [5]: 39% | Activity [6]: 79% | Activity [7]: 46% | Activity [8]: 10% | Activity [9]: 54% | Activity [10]: 18% | IC50 [11]: 513 nM | Activity [12]: 92% | Activity [13]: 45% | IC50 [14]: 479 nM | Activity [15]: 48% | Activity [16]: 46% | EC50 [17]: 20000 nM | Activity [18]: 49% | IC50 [19]: 76 nM | EC50 [20]: 11200 nM | Activity [21]: 78% | Activity [22]: 9% | Activity [23]: 17% | IC50 [24]: 693 nM | EC50 [25]: 7300 nM | Activity [26]: 37% | Activity [27]: 38% | Activity [28]: 25% | EC50 [29]: 7800 nM

CCCNc1ccc2ncc(-c3ccc4[nH]ncc4c3)n2n1
Activity [30]: 44% | Activity [31]: 18% | Activity [32]: 38%

CCn1ncc2cc3cnccc3c(N)c21
Activity [1]: 84% | Activity [2]: 6% | Activity [3]: 16% | EC50 [4]: 7300 nM | Activity [5]: 40% | Activity [6]: 65% | Activity [7]: 34% | Activity [8]: 28% | Activity [9]: 42% | Activity [10]: 25% | Activity [12]: 82% | Activity [13]: 43% | Activity [15]: 44% | Activity [16]: 23% | EC50 [17]: 1200 nM | Activity [18]: 91% | EC50 [20]: 2700 nM | Activity [21]: 80% | Activity [22]: 60% | Activity [23]: 8% | EC50 [25]: 1200 nM | Activity [26]: 32% | Activity [27]: 50% | Activity [28]: 48% | EC50 [29]: 300 nM
